# Data as given in ChEMBL document CHEMBL4715750, “Synthesis and in vitro, ex-vivo and in vivo activity of hybrid compounds linking a potent ROS and RNS scavenger activity with diverse substrates addressed to pass across the blood-brain barrier” (Eur J Med Chem, 2016).
# The source made the active and inactive calls. The rule behind the calls is not given here.
# What was measured:
# [1] = Cytotoxicity against human SH-SY5Y cells assessed as cell viability at 1.6 uM measured after 24 hrs by MTT assay relative to control; type: cell-based; details: read-out: Activity
# [2] = Cytotoxicity against human SH-SY5Y cells assessed as cell viability at 50 uM measured after 2 hrs by MTT assay relative to control; type: cell-based; details: read-out: Activity
# [3] = Cytotoxicity against human SH-SY5Y cells assessed as cell viability at 1.6 uM measured after 2 hrs by MTT assay relative to control; type: cell-based; details: read-out: Activity
# [4] = Cytotoxicity against human SH-SY5Y cells assessed as cell viability at 12.5 uM measured after 24 hrs by MTT assay relative to control; type: cell-based; details: read-out: Activity
# [5] = Cytotoxicity against human SH-SY5Y cells assessed as cell viability at 3.1 uM measured after 24 hrs by MTT assay relative to control; type: cell-based; details: read-out: Activity
# [6] = Cytotoxicity against human SH-SY5Y cells assessed as cell viability at 0.8 uM measured after 2 hrs by MTT assay relative to control; type: cell-based; details: read-out: Activity
# [7] = Drug concentration in Sprague-Dawley rat plasma at 0.2 mmol/Kg, ip measured after 1 hr by HPLC based fluorimetric analysis; type: ADME, organism-based
# SH-SY5Y [8] = experiment: Antioxidant activity in human SH-SY5Y cells assessed as inhibition of H2O2-induced DCFH oxidation measured after 1 hr by DCFH-DA dye based fluorescence assay; type: functional, cell-based
# [9] = Cytotoxicity against human SH-SY5Y cells assessed as cell viability at 3.1 uM measured after 2 hrs by MTT assay relative to control; type: cell-based; details: read-out: Activity
# [10] = Retention time in Sprague-Dawley rat brain by HPLC based fluorimetric analysis; type: ADME, tissue-based
# [11] = Antioxidant activity assessed as DPPH radical scavenging activity incubated for 60 mins in absence of light; type: functional
# [12] = Cytotoxicity against human SH-SY5Y cells assessed as cell viability at 100 uM measured after 2 hrs by MTT assay relative to control; type: cell-based; details: read-out: Activity
# [13] = Retention time in Sprague-Dawley rat plasma by HPLC based fluorimetric analysis; type: ADME, cell-free
# [14] = Cytotoxicity against human SH-SY5Y cells assessed as cell viability at 50 uM measured after 24 hrs by MTT assay relative to control; type: cell-based; details: read-out: Activity
# [15] = Cytotoxicity against human SH-SY5Y cells assessed as cell viability at 6.3 uM measured after 24 hrs by MTT assay relative to control; type: cell-based; details: read-out: Activity
# [16] = Cytotoxicity against human SH-SY5Y cells assessed as cell viability at 6.3 uM measured after 2 hrs by MTT assay relative to control; type: cell-based; details: read-out: Activity
# [17] = Permeability of the compound at pH 7.4 by PAMPA-BBB assay; type: ADME; details: read-out: permeability
# [18] = Cytotoxicity against human SH-SY5Y cells assessed as cell viability at 0.8 uM measured after 24 hrs by MTT assay relative to control; type: cell-based; details: read-out: Activity
# [19] = Cytotoxicity against human SH-SY5Y cells assessed as cell viability at 12.5 uM measured after 2 hrs by MTT assay relative to control; type: cell-based; details: read-out: Activity
# [20] = Cytotoxicity against human SH-SY5Y cells assessed as cell viability at 25 uM measured after 2 hrs by MTT assay relative to control; type: cell-based; details: read-out: Activity
# [21] = Drug concentration in Sprague-Dawley rat brain at 0.2 mmol/Kg, ip measured after 1 hr by HPLC based fluorimetric analysis; type: ADME, organism-based; details: in vivo
# [22] = Cytotoxicity against human SH-SY5Y cells assessed as cell viability at 100 uM measured after 24 hrs by MTT assay relative to control; type: cell-based; details: read-out: Activity
# [23] = Cytotoxicity against human SH-SY5Y cells assessed as cell viability at 25 uM measured after 24 hrs by MTT assay relative to control; type: cell-based; details: read-out: Activity
# SH-SY5Y [24] = experiment: Cytoprotective activity against DMSO-induced toxicity in human SH-SY5Y cells; type: functional, cell-based
smiles,measurement,setting,value
COc1cc2c(cc1O)CCC(C)(C)O2,"viability at 24 h, 1.6 µM",[1],93.9%
same,"viability at 2 h, 50 µM",[2],86.8%
same,"viability at 2 h, 1.6 µM",[3],94.1%
same,"viability at 24 h, 12.5 µM",[4],100%
same,"viability at 24 h, 3.1 µM",[5],99.4%
same,"viability at 2 h, 0.8 µM",[6],98.5%
same,concentration at 1 h,[7],2.4 µM
same,Activity,SH-SY5Y [8],Dose-dependent effect
same,IC50,SH-SY5Y [8],21.7 µM
same,"viability at 2 h, 3.1 µM",[9],85.6%
same,Retention_time,[10],8 min
same,IC50,[11],14.1 µM
same,"viability at 2 h, 100 µM",[12],66.9%
same,Retention_time,[13],8 min
same,"viability at 24 h, 50 µM",[14],95.2%
same,"viability at 24 h, 6.3 µM",[15],98%
same,"viability at 2 h, 6.3 µM",[16],92.2%
same,Papp,[17],0.25 ×10⁻⁶ cm/s
same,"viability at 24 h, 0.8 µM",[18],91.1%
same,"viability at 2 h, 12.5 µM",[19],91.5%
same,"viability at 2 h, 25 µM",[20],90.6%
same,Ct,[21],4 nmol/g
same,"viability at 24 h, 100 µM",[22],96.1%
same,"viability at 24 h, 25 µM",[23],93.2%
COc1cc2c(cc1O)CCC(C)(CC(N)C(=O)O)O2 (configuration not stated),Activity,SH-SY5Y [24],Active
same,"viability at 24 h, 1.6 µM",[1],100%
same,"viability at 2 h, 50 µM",[2],100%
same,"viability at 2 h, 1.6 µM",[3],100%
same,"viability at 24 h, 12.5 µM",[4],100%
same,"viability at 24 h, 3.1 µM",[5],100%
same,"viability at 2 h, 0.8 µM",[6],100%
same,concentration at 1 h,[7],52.3 µM
same,Activity,SH-SY5Y [8],Dose-dependent effect
same,IC50,SH-SY5Y [8],> 200 µM
same,"viability at 2 h, 3.1 µM",[9],100%
same,Retention_time,[10],7 min
same,IC50,[11],14.1 µM
same,"viability at 2 h, 100 µM",[12],87.8%
same,"viability at 24 h, 50 µM",[14],85.7%
same,"viability at 24 h, 6.3 µM",[15],100%
same,"viability at 2 h, 6.3 µM",[16],100%
same,Papp,[17],0.04 ×10⁻⁶ cm/s
same,"viability at 24 h, 0.8 µM",[18],82.7%
same,"viability at 2 h, 12.5 µM",[19],100%
same,"viability at 2 h, 25 µM",[20],100%
same,Ct,[21],15.8 nmol/g
same,"viability at 24 h, 100 µM",[22],60.1%
same,"viability at 24 h, 25 µM",[23],88.5%
COc1cc2c(cc1O)CCC(C)(CC(=O)N[C@@H](Cc1ccccc1)C(=O)O)O2 (some centres not stated),Activity,SH-SY5Y [24],Active
same,"viability at 24 h, 1.6 µM",[1],100%
same,"viability at 2 h, 50 µM",[2],100%
same,"viability at 2 h, 1.6 µM",[3],100%
same,"viability at 24 h, 12.5 µM",[4],82.3%
same,"viability at 24 h, 3.1 µM",[5],93%
same,"viability at 2 h, 0.8 µM",[6],99%
same,concentration at 1 h,[7],0.9 µM
same,Activity,SH-SY5Y [8],Dose-dependent effect
same,IC50,SH-SY5Y [8],44.5 µM
same,"viability at 2 h, 3.1 µM",[9],100%
same,IC50,[11],14.9 µM
same,"viability at 2 h, 100 µM",[12],72.2%
same,"viability at 24 h, 50 µM",[14],89.5%
same,"viability at 24 h, 6.3 µM",[15],87.5%
same,"viability at 2 h, 6.3 µM",[16],100%
same,Papp,[17],0.49 ×10⁻⁶ cm/s
same,"viability at 24 h, 0.8 µM",[18],100%
same,"viability at 2 h, 12.5 µM",[19],100%
same,"viability at 2 h, 25 µM",[20],100%
same,Ct,[21],0 nmol/g
same,"viability at 24 h, 100 µM",[22],59.1%
same,"viability at 24 h, 25 µM",[23],81.1%
COc1cc2c(cc1O)CCC(C)(CCNC(=O)C[C@H]1OC(O)[C@H](O)[C@@H](O)[C@@H]1O)O2 (some centres not stated),Activity,SH-SY5Y [24],Active
same,"viability at 24 h, 1.6 µM",[1],96.7%
same,"viability at 2 h, 50 µM",[2],99.6%
same,"viability at 2 h, 1.6 µM",[3],95.3%
same,"viability at 24 h, 12.5 µM",[4],90.6%
same,"viability at 24 h, 3.1 µM",[5],88.1%
same,"viability at 2 h, 0.8 µM",[6],88.9%
same,concentration at 1 h,[7],26 µM
same,Activity,SH-SY5Y [8],Dose-dependent effect
same,IC50,SH-SY5Y [8],35.6 µM
same,"viability at 2 h, 3.1 µM",[9],93.3%
same,Retention_time,[10],2 min
same,IC50,[11],13.1 µM
same,"viability at 2 h, 100 µM",[12],77.6%
same,"viability at 24 h, 50 µM",[14],86.6%
same,"viability at 24 h, 6.3 µM",[15],87.2%
same,"viability at 2 h, 6.3 µM",[16],100%
same,"viability at 24 h, 0.8 µM",[18],96.1%
same,"viability at 2 h, 12.5 µM",[19],100%
same,"viability at 2 h, 25 µM",[20],100%
same,Ct,[21],3.1 nmol/g
same,"viability at 24 h, 100 µM",[22],56.6%
same,"viability at 24 h, 25 µM",[23],87.9%
COc1cc2c(cc1O)CCC(C)(CC(=O)N[C@@H](Cc1ccc(O)cc1)C(=O)O)O2 (some centres not stated),"viability at 24 h, 1.6 µM",[1],89.5%
same,"viability at 2 h, 50 µM",[2],95.7%
same,"viability at 2 h, 1.6 µM",[3],94.5%
same,"viability at 24 h, 12.5 µM",[4],81.6%
same,"viability at 24 h, 3.1 µM",[5],89.9%
same,"viability at 2 h, 0.8 µM",[6],92.2%
same,concentration at 1 h,[7],7 µM
same,Activity,SH-SY5Y [8],Dose-dependent effect
same,IC50,SH-SY5Y [8],50 µM
same,"viability at 2 h, 3.1 µM",[9],100%
same,IC50,[11],19.6 µM
same,"viability at 2 h, 100 µM",[12],75.8%
same,"viability at 24 h, 50 µM",[14],78.6%
same,"viability at 24 h, 6.3 µM",[15],83.3%
same,"viability at 2 h, 6.3 µM",[16],99.7%
same,"viability at 24 h, 0.8 µM",[18],79.7%
same,"viability at 2 h, 12.5 µM",[19],92.5%
same,"viability at 2 h, 25 µM",[20],95.5%
same,"viability at 24 h, 100 µM",[22],67.5%
same,"viability at 24 h, 25 µM",[23],82.7%
COc1cc2c(cc1O)CCC(C)(CCNC(C)=O)O2 (configuration not stated),"viability at 24 h, 1.6 µM",[1],78.7%
same,"viability at 2 h, 50 µM",[2],81.2%
same,"viability at 2 h, 1.6 µM",[3],100%
same,"viability at 24 h, 12.5 µM",[4],83.5%
same,"viability at 24 h, 3.1 µM",[5],90.7%
same,"viability at 2 h, 0.8 µM",[6],91.3%
same,concentration at 1 h,[7],3 µM
same,Activity,SH-SY5Y [8],Dose-dependent effect
same,IC50,SH-SY5Y [8],50.3 µM
same,"viability at 2 h, 3.1 µM",[9],82.3%
same,Retention_time,[10],4 min
same,IC50,[11],14.3 µM
same,"viability at 2 h, 100 µM",[12],66.6%
same,"viability at 24 h, 50 µM",[14],66.5%
same,"viability at 24 h, 6.3 µM",[15],87.8%
same,"viability at 2 h, 6.3 µM",[16],79.4%
same,Papp,[17],0.52 ×10⁻⁶ cm/s
same,"viability at 24 h, 0.8 µM",[18],89%
same,"viability at 2 h, 12.5 µM",[19],84.8%
same,"viability at 2 h, 25 µM",[20],89.2%
same,Ct,[21],2.3 nmol/g
same,"viability at 24 h, 100 µM",[22],57.9%
same,"viability at 24 h, 25 µM",[23],76.2%
